Laboratory results from patent US10292989B2, “General anesthetics that are not neurotoxic” (University of Virginia Patent Foundation, priority 2014, dated 2019).

Experiments:
[1] = target: T1, recombinant human Cav2.3 channels (Homo sapiens, UniProt Q15878); assay: Recombinant human Cav2.3 currents in HEK 293 cells; format: cell-based; conditions: HEK293, read-out: inhibition of recombinant Cav2.3 currents (of control pre-drug values)
T1 construct: expressed in transfected cells
Text: Here, we examined the sensitivity of recombinant human Cav2.3 channels stably expressed in human embryonic kidney (HEK) 293 cells to 3β-OH.

[2] = system: young adolescent rats (P20-29); assay: Loss of righting reflex (LORR) in young adolescent rats, i.p.; format: in vivo; conditions: Rattus norvegicus, ip; rats of both sexes P20-29, i.p., 15% β-cyclodextrin; read-out: estimated ED50 for loss of righting reflex (LORR)
Experimental: (§2) For in vivo experiments, steroids were freshly dissolved in 15% β-cyclodextrin solution and injected intraperitoneally (i.p.) at escalating doses from 5 to 75 mg/kg.

[3] = Daily weight gain after exposure at PND7; format: in vivo, rat; conditions: 3β-OH at 10 mg/kg, ketamine at 40 mg/kg, treated PND 7
Experimental: (§1) To assess cognitive abilities of our rats we tested their spatial working memory using the 8-arm radial arm maze test (RAM). We began by comparing the overall appearance and daily weight of rats in each group (saline, cyclodextrin, 3β-OH at 10 mg/kg and ketamine at 40 mg/kg) since nutritional status and general state of health are critically important for cognitive development. Based on their general appearance, rats in different groups could not be distinguished from each other. Similarly, there was no difference in daily weight gain among the groups (FIG. 13A). The time points when the animals were treated (PND 7), food restricted (from PND 45), tested on the RAM (from PND 53) and permitted to eat ad libitum (from PND 70) are indicated on the graph. Food restriction, a necessary component of the RAM learning protocol, was limited so that no rat lost more than 10%-15% of its body weight.

[4] = Lethality (LD50) in PND7 rat pups; conditions: rat, in vivo, ip
[5] = system: rat pups (PND7); assay: Lethality (LD50) in PND7 rat pups; conditions: LD50 vs ED50 for LORR
[6] = system: NMDA currents; conditions: cited from earlier work
[7] = system: adult monkeys; assay: Acute anesthetic doses in adult monkeys, cardiac arrhythmias; format: in vivo, monkey; conditions: acute applications of anesthetic doses, preliminary study, data not shown
Text: Although no preclinical data are currently available on the long-term use of 3β-OH, ECN, and related neuroactive steroids, previous evaluation of the safety of non-steroidal blockers of T-channels such as TTA compounds in dogs has disclosed no cardiovascular side effects.

[8] = system: adult female C57Bl/6 mice; assay: Loss of righting reflex (LORR) in adult female C57Bl/6 mice, i.p.; format: in vivo, mouse
Experimental: as §2

[9] = system: rat pups (PND7); assay: Loss of righting reflex (LORR) in PND7 rat pups, i.p.
[10] = system: rats with hind paw incision; assay: Thermal hyperalgesia after plantar skin and deep tissue incision (PWL); format: in vivo, rat
Experimental: In order to study the potential role of neuroactive steroids in perioperative analgesia we used a model of a plantar incision of skin and deep tissue in the hind paw of rats. Starting 2 hours after operation, thermal hyperalgesia to nociceptive heat stimuli was assessed measuring thermal PWLs. As depicted in FIG. 5, thermal hyperalgesia is profound up to two days after surgery as evidenced by attenuated PWLs in incised (right) paws by about 70% when compared to unincised (left) paws in the same animals. This gradually resolved and returned to near preoperative baseline values within 7 days. Note that thermal PWLs in unincised paws remained stable during this period.
Next, we examined the ability of 3β-OH to influence thermal hyperalgesia in this rat model of perioperative pain. […] We applied the same dose of steroid or vehicle i.t. at 2, 24 and 48 hours after surgery and measured thermal PWLs in both paws (unincised paws, top panel of FIG. 6; incised paws, bottom panel of FIG. 6) at 30 minute intervals from 30-180 minutes after surgery in order to assess the time course and possible tolerance to any analgesic and antihyperalgesic effect of 3β-OH. FIG. 6 summarizes average results from multiple animals (6-13 per group). It is noteworthy that 3β-OH had little effect on thermal PWLs when compared to vehicle in incised paws when applied 2 hours after incision (bottom panel, filled round symbols) while in contralateral unincised paws (top panel, filled round symbols) the same dose induced analgesia at the 30 and 60 minute time points as evidenced by increased PWLs when compared to vehicle injections (top panel, filled circles). Furthermore, subsequent i.t. injections of 3β-OH at 24 hours (open squares) and 48 hours (filled triangles) induced long-lasting progressive anti-hyperalgesia in incised paws (bottom panel) with return of thermal PWLs to near baseline pre-incisional values measured at 180 minutes after injection (48 hours group). For example, at 48 hours post-surgery the average PWL of incised paws at 180 minutes post vehicle injection was about 4 seconds, while at 180 minutes post steroid injection PWLs were prolonged to about 9 seconds and approached pre-incisional values. In contrast, in unincised paws the same injections of 3β-OH induced analgesia of similar magnitude to the analgesia produced when steroid was injected 2 hours post-surgery, measuring in average 14-15 seconds on thermal PWLs (top panel).
We next tested the idea that locally applied 3β-OH may abolish thermal hyperalgesia after paw incision. For these experiments we first obtained baseline (pre-incision) thermal PWLs (about 10 seconds) and repeated measurements 2 hours after surgery (about 2.5 seconds). We then injected (arrow on FIG. 7A) directly into the incised paw either 16 μg or 48 μg of 3β-OH in 100 μl of saline that was pH adjusted to 7.4 (n=6 rats in each group). We recorded PWLs for three consecutive days after injections.
Note that PWLs in noninjected (unincised) paws (black squares and red diamonds) remained stable indicating lack of any systemic effect. […] For these experiments depicted on FIG. 7B, we first obtained pre-incision PWLs, and then injected 16 μg of 3β-OH repeatedly at the following time points: 2 hours, day 1, 2, 3 and 5 after post-surgery (n=6 rats). As shown on FIG. 7B (red symbols) repeated injections of steroid induced progressive anti-hyperalgesia from day 1 to day 5 post surgery with increase in PWLs from 50-90% when compared to PWLs in incised paws injected with vehicle (*, p<0.05; **, p<0.01; ***, p<0.001).

[11] = system: rats; assay: 8-arm radial arm maze (RAM) after exposure at PND7; format: in vivo, rat
Experimental: as §1
To further scrutinize how the acquisition rate of 3β-OH-treated rats compares to ketamine and vehicle groups, we plotted the cumulative percent scores for ketamine-treated animals relative to recorded cumulative percent scores for other groups, using a percent-percent plot (p-p plot) (FIG. 14). […] The learning behavior of 3β-OH-treated rats is similar to that of sham controls resulting in a large gap (shaded area) in learning ability between ketamine-treated (lower blue dotted line) and 3β-OH-treated animals (upper red dotted line). A slight slowing in the acquisition rate observed with 3β-OH-treated rats when compared to vehicle controls (saline—SAL and cyclodextrin—CYCL) during the mid-portion of training (as discussed in FIG. 13C) is highlighted with rectangles.

[12] = system: activated caspase-3 in developing brain; assay: Activated caspase-3 staining of vulnerable brain regions in PND7 rat pups
[13] = system: T-currents in nucleus reticularis thalami (nRT); conditions: cited from earlier work
[14] = system: adult naïve rats; assay: Thermal paw withdrawal latency after i.t. injection in naive rats; format: in vivo, rat
Experimental: a. […] We began by studying the role of postsynaptic T-channels in DH neurons using current-clamp recording from unidentified lamina I-II DH neurons in spinal cord slices in vitro. To exclude synaptic currents, our external solution contained 20 μM picrotoxin, 50 μM d-APV and 5 μM NBQX to block inhibitory and excitatory synaptic currents, respectively. We first injected −300 pA of current via the recording electrode for 500 ms, which hyperpolarized the resting membrane potential (RMP) and allowed T-channels to recover from inactivation. This protocol served to assess input resistance (Rin) and to evoke rebound action potential (AP) firing. The top line in FIG. 3A depicts the protocol of current injection while bottom traces represent membrane responses. […] To investigate the possible role of T-channels in spinal nociceptive transmission in vivo, we used intrathecal (i.t.) injections and measured thermal nociceptive responses to noxious heat in adult naïve rats using methods as we described elsewhere (Messinger et al., 2009; Obradovic et al., 2014, PLoS ONE 9(4): e91467. doi:10.1371/journal.pone.0091467). For i.t. injections, rats were briefly anesthetized with 1.5-2% isoflurane and thermal paw withdrawal latencies (PWLs) were measured starting from 30 minutes following injection. […]

[15] = system: GABAA currents; conditions: cited from earlier work
[16] = target: T2, T-channels in rat DRG neurons (Rattus norvegicus, UniProt Q9EQ60); conditions: cited from earlier work
T2 construct: endogenous in cells; host or cells: acutely dissociated rat DRG neurons
T2 sequence (Q9EQ60 whole entry): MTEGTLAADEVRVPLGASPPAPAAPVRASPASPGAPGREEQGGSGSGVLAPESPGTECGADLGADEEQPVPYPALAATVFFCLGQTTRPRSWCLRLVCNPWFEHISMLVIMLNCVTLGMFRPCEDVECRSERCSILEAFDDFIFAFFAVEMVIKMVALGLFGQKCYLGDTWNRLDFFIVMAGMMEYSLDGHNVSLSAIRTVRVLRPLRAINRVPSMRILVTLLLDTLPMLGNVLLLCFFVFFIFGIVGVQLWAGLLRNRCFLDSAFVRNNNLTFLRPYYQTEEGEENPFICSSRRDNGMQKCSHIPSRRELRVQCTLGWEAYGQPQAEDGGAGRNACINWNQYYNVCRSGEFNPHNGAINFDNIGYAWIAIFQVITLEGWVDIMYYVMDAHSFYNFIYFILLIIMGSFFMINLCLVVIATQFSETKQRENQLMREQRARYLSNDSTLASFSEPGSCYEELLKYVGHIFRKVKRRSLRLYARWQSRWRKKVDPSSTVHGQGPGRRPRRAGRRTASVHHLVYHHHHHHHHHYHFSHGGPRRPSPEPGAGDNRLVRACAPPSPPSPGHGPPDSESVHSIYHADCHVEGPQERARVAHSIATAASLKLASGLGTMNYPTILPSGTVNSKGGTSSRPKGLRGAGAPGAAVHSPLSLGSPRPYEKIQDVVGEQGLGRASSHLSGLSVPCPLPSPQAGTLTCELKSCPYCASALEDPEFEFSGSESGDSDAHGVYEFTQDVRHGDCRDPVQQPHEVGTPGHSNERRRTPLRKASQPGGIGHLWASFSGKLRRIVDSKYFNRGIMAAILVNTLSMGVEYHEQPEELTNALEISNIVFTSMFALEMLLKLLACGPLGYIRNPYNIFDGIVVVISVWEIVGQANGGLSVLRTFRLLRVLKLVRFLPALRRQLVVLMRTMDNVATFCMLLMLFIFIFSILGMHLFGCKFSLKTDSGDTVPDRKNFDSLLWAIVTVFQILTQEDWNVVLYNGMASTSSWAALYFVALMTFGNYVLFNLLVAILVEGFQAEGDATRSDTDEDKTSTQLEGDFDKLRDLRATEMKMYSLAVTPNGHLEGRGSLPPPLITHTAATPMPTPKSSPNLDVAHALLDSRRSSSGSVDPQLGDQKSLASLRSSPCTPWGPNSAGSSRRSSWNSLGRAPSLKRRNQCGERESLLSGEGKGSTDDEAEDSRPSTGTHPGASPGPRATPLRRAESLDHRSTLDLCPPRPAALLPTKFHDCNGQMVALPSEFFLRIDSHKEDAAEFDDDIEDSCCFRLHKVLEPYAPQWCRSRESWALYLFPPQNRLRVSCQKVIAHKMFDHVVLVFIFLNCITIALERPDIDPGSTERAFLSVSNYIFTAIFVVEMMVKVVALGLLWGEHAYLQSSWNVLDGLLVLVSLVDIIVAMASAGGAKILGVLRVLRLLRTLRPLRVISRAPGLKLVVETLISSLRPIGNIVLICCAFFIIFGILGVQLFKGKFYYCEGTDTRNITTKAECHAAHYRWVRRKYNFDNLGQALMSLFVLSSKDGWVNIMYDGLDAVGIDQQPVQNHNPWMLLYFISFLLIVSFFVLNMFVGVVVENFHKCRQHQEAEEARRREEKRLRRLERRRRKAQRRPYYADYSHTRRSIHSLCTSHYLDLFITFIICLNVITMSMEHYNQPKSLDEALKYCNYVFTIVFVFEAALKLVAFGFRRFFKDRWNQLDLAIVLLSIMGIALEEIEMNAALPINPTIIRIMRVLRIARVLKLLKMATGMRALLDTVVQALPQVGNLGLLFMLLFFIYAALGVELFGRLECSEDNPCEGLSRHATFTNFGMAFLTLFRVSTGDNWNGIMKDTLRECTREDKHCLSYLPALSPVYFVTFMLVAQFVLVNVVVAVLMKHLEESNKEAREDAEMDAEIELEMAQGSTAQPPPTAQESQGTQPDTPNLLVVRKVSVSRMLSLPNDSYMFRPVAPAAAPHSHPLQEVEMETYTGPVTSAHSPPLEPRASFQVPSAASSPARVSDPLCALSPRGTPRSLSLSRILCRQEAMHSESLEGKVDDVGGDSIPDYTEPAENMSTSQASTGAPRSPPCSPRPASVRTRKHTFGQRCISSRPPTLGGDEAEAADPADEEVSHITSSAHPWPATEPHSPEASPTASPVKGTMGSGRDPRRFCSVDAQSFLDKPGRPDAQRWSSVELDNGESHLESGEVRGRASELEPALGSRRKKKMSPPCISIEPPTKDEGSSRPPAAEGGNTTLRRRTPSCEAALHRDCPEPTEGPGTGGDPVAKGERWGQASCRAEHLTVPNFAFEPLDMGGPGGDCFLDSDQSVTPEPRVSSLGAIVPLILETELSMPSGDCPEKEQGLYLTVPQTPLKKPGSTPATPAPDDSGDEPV

[17] = system: rats; assay: Sensorimotor tests (inclined plane, platform, ledge); format: in vivo, rat; conditions: 16 μg i.t., 60 min after injection
Experimental: b. 3β-OH induces potent dose-dependent spinally-mediated analgesia in naïve rats. To assess its potential for spinally mediated analgesia, we injected 4 escalating doses of 3β-OH i.t. (from 0.003 to 16 μg) dissolved in 50 μL of vehicle (15% β-cyclodextrin) and measured thermal PWLs at 30 minutes intervals up to 150 minutes after injections. […] The analgesic effect was long-lasting, with higher doses of 3β-OH increasing PWLs by about 25-30% at 150 minutes post-injections. Note that PWLs remained stable in both paws during injections of vehicle (red lines). We also considered the possibility that i.t. injected 3β-OH may non-specifically affect performance by decreasing motor strength and/or coordination. […] Rats (n=6), were tested using an inclined plane, platform, and ledge before injection of the highest dose of 3β-OH (16 μg i.t.) and at 60 min after injection, corresponding to the time of maximal analgesia (FIG. 4).

T1 sequence (Q15878 whole entry): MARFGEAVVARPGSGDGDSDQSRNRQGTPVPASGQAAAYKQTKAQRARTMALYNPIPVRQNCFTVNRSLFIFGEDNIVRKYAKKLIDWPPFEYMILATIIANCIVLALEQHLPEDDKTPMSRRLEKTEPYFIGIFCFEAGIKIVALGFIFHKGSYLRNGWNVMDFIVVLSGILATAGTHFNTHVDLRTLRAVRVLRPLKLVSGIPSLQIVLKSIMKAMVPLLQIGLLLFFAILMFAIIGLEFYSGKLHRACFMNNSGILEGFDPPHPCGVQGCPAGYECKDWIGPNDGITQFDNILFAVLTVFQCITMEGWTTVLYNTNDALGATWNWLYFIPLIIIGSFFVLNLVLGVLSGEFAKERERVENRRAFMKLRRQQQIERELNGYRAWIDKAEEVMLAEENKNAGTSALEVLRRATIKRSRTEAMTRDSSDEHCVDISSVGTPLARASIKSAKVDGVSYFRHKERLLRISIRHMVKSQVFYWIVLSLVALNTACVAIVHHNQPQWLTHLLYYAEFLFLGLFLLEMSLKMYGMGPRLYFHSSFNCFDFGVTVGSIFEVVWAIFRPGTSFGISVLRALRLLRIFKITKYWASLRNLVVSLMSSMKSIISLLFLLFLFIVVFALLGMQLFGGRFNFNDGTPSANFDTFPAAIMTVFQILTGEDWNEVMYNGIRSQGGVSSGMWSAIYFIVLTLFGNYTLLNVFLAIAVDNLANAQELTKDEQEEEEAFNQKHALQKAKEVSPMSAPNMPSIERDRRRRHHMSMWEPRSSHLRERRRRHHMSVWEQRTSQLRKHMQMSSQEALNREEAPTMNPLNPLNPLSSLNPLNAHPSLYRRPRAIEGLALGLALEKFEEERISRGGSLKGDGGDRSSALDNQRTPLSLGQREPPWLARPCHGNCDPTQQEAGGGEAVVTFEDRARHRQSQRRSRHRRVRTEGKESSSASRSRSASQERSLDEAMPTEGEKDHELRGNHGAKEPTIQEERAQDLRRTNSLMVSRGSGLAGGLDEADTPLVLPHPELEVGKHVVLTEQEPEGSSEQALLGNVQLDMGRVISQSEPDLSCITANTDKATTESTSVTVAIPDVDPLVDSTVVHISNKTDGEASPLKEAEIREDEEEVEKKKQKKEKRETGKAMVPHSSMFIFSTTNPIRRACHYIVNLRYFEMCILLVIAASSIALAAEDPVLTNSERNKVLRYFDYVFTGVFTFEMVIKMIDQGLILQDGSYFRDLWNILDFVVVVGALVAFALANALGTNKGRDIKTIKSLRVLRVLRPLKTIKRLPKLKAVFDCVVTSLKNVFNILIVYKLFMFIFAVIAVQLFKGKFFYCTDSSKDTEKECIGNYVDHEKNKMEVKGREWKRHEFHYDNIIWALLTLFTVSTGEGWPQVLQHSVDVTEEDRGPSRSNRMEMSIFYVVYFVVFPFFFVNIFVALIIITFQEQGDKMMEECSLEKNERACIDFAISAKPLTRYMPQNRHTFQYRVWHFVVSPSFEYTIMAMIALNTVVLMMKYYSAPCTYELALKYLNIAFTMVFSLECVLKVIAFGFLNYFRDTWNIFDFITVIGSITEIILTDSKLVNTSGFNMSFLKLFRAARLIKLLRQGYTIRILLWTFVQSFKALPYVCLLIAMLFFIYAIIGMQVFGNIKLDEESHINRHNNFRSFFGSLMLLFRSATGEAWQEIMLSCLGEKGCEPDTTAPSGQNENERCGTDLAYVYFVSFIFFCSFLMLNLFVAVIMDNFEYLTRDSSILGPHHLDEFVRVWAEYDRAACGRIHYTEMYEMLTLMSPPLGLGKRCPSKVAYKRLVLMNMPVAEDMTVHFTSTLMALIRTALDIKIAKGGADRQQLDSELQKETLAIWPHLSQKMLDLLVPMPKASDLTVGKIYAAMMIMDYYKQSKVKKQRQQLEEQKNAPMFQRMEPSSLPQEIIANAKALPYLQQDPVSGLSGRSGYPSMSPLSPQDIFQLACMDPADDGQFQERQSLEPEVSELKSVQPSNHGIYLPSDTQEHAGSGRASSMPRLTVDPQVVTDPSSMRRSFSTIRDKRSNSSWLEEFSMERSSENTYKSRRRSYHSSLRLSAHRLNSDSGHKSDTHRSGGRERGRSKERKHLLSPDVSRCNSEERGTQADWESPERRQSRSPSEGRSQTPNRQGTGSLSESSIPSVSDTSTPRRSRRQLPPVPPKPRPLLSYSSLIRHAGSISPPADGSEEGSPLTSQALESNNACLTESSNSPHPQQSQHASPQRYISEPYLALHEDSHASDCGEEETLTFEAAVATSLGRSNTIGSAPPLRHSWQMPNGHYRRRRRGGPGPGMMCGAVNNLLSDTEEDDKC
T1 sequence (P54284 whole entry partner): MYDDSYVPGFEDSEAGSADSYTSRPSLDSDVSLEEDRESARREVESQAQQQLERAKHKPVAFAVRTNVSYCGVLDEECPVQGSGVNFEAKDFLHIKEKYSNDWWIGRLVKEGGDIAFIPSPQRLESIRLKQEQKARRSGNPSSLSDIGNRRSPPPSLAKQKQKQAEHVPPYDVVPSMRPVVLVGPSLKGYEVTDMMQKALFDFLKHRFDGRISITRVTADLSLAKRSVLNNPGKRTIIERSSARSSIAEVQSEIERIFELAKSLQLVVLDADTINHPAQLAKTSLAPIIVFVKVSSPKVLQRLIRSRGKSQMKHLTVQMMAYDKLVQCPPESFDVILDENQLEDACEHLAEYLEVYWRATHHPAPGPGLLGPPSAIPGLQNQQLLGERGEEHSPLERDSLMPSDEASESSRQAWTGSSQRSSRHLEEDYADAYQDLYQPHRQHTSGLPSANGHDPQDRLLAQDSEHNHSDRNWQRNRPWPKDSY

SMILES: C[C@]12CC[C@H](O)C[C@H]1CC[C@@H]1[C@@H]2CC[C@]2(C)[C@@H](C#N)CC[C@@H]12 [3β-OH, (3β,5β,17β)-3-hydroxyandrostane-17-carbonitrile]
- inhibition at 3 µM [1]: 38 ± 4%
- ED50 [2]: 16 ± 0.4 mg/kg
- daily weight gain among the groups [3]: no difference
- LD50 [4]: 61.9 ± 4.6 mg/kg
- therapeutic index [5]: about 22
- effect on postsynaptic NMDA currents [6]: devoid of any direct effects
- cardiac arrhythmias [7]: did not notice cardiac arrhythmias
- duration of LORR ([8]; 75 mg/kg dose): up to 50 min
- ED50 ([8]; Mus musculus, ip, adult female C57Bl/6 mice): 46 ± 2 mg/kg
- calculated EC50 (duration of LORR) ([9]; PND7 rat pups, i.p.): 34.5 ± 3.7 mg/kg
- ED50 ([9]; Rattus norvegicus, ip, read-out: calculated ED50 for LORR): 2.9 ± 0.28 mg/kg
- equipotent dose comparable to ketamine 40 mg/kg ([9]; i.p., based on LORR): 10 mg/kg
- equipotent single dose comparable to ketamine 20 mg/kg ([9]; i.p., based on LORR): 5 mg/kg
- increase in PWLs compared to incised paws injected with vehicle ([10]; 16 μg i.pl. repeated at 2 hours, day 1, 2, 3 and 5, day 1 to day 5): 50-90%
- thermal PWL of incised paw ([10]; 16 μg i.pl. single injection, day 1 after incision): about 6 seconds
- thermal PWL of incised paw vs vehicle ([10]; 16 μg i.pl. single injection, day 2): not significantly different
- effect on thermal PWLs vs vehicle in incised paws ([10]; 16 μg i.t. applied 2 hours after incision): little effect
- thermal PWL of unincised paws ([10]; 16 μg i.t. at 24 and 48 hours post-surgery): 14 to 15 s
- thermal PWL of incised paws ([10]; 16 μg i.t., 48 hours post-surgery, 180 minutes post injection, vehicle about 4): about 9 seconds
- thermal PWL of incised paw ([10]; 48 μg i.pl. single injection, day 1 post incision): about 6.5 seconds
- thermal PWL of incised paw ([10]; 48 μg i.pl. single injection, day 2 post incision): about 7 seconds
- time after surgery for which hyperalgesia is reduced ([10]; data not shown): at least 48 hours
- days required to reach learning criterion in RAM ([11]; 3β-OH at 10 mg/kg, ketamine at 40 mg/kg at PND 7, tested from PND 53): indistinguishable from vehicle animals
- rats reaching criterion in the allotted time ([11]; p-p plot): 100%
- rats that had reached criterion at the same point of training (p-p plot) ([11]; rat, in vivo): roughly half
- apoptotic (caspase-3) activation compared with vehicle ([12]; 5 mg/kg i.p. every hour, six doses, all examined regions except subiculum): did not cause significant apoptotic activation
- caspase-3 activation, twice higher dose compared with lower dose ([12]; 10 mg/kg vs 5 mg/kg i.p., 6 doses hourly): small increase
- caspase-3 activation at higher dose compared with vehicle ([12]; 3β-OH 10 mg/kg or ketamine 40 mg/kg i.p., 6 doses hourly, 3β-OH: except subiculum): no significant increase
- IC50 [13]: 2000 nM
- prolongation of PWLs over pre-injection baseline ([14]; i.t. 0.003 to 16 μg, 60 minutes post-injection): up to 80%
- increase of PWLs ([14]; i.t., higher doses, 150 minutes post-injection): 25-30%
- effect on GABAA currents [15]: devoid of any direct effects
- maximal block of T-current ([16]; DRG neurons): 100%
- IC50 ([16]; acutely dissociated DRG cells, read-out: IC50, block of T-currents in DRG cells): 3000 nM
- sensorimotor responses after vs before injection [17]: did not differ significantly
